Measurements published in US20230241063A1, “METHODS OF TREATING PROSTATE CANCER” (Celgene Quanticel Research, Inc., priority 2020, published 2023).
Entries after “also recorded” stand apart in the source; their conditions may differ.

How the values were obtained:
PC3 cells = test: Proliferation assay (Cell Titer-Glo) in PC3 cells; type: cell-based, human; details: single agent, 3 days, CellTiter Glo
[1] = tested on: LNCaP-AR CRISPRi TP53/RB1 cells; test: Proliferation assay (Cell Titer-Glo) in LNCaP-AR CRISPRi TP53/RB1 cells; type: cell-based, human; details: single agents, 6 days, LNCaP_AR guideTP53/RB1 cells
TKO cells = test: Proliferation assay (Cell Titer-Glo) in TKO cells; type: cell-based, mouse; details: Compound A alone
DKO cells = test: Proliferation assay (Cell Titer-Glo) in DKO cells; type: cell-based, mouse; details: Compound A alone
Krt8 [2] = test: Krt8 gene expression by qPCR in DKO cells; type: cell-based, mouse; details: 8 days, enzalutamide 10 uM in the combination
Krt8 [3] = test: Krt8 gene expression by qPCR in TKO cells; type: cell-based, mouse; details: single agent, 8 days
LNCaP-AR cells = test: Proliferation assay (Cell Titer-Glo) in LNCaP-AR cells; type: cell-based, human; details: single agent, 3 days
VCaP cells = test: Proliferation assay (Cell Titer-Glo) in VCaP cells; type: cell-based, human; details: 3 days; enzalutamide 10 uM in the combination
LNCaP cells = test: Proliferation assay (Cell Titer-Glo) in LNCaP cells; type: cell-based, human; details: single agent, 6 days

SMILES | effect on cell proliferation of PC3 cells (PC3 cells) | effect on proliferation [1] | effect on proliferation ([1]; listed as ENZA) | effect on TKO cell proliferation (TKO cells) | effect on DKO cell proliferation (DKO cells) | induction of Keratin8 (Krt8) expression (Krt8 [2]) [fold] | concentration of Compound A able to induce the expression of Krt8 (Krt8 [3]) [µM] | effect on cell proliferation (LNCaP-AR cells) | effect on proliferation of VCaP cells (VCaP cells) | effect on proliferation of LNCaP cells (LNCaP cells)
CNC(=O)c1ccc(N2C(=S)N(c3ccc(C#N)c(C(F)(F)F)c3)C(=O)C2(C)C)cc1F [enzalutamide, 4-{3-[4-cyano-3-(trifluoromethyl)phenyl]-5,5-dimethyl-4-oxo-2-sulfanylideneimidazolidin-1-yl}-2-fluoro-N-methylbenzamide, reference compound] | resistant | do not affect proliferation | did not affect proliferation |  |  |  |  |  |  | 
COc1ccc(-c2c(-c3ccc(C#N)c(F)c3)nc(N3CCC(N)CC3)n(C)c2=O)cc1F [Compound A, 4-[2-(4-amino-piperidin-1-yl)-5-(3-fluoro-4-methoxy-phenyl)-1-methyl-6-oxo-1,6-dihydro-pyrimidin-4-yl]-2-fluoro-benzonitrile] | did not affect cell proliferation; also recorded: does not affect cell proliferation | do not affect proliferation; also recorded: did not affect proliferation |  | mild effect | mild effect | 1.5 | ≥ 1 | no effect on cell proliferation | no effect on proliferation; also recorded: did not affect proliferation | no effect on proliferation; also recorded: did not affect proliferation
